Experimental data reported in ChEMBL document CHEMBL2150933 (J Med Chem, 2012).

Key:
[1] = Plasma concentration in CD1 mouse at 1 mg/kg, iv administered as single dose measured after 120 mins; type: ADME, organism-based; design: dose 1 mg/kg, route intravenous
[2] = Toxicity in iv dosed CD1 mouse administered Q2D for 8 days; type: organism-based; details: CD1, mouse, in vivo
[3] = Plasma concentration in CD1 mouse at 1 mg/kg, iv administered as single dose measured after 30 mins; type: ADME, organism-based; design: dose 1 mg/kg, route intravenous
[4] = Plasma concentration in CD1 mouse at 1 mg/kg, iv administered as single dose measured after 5 mins; type: ADME, organism-based; design: dose 1 mg/kg, route intravenous

SMILES: CO[C@H](C(=O)[C@@H](O)[C@@H](C)O)[C@@H]1Cc2cc3cc(O[C@H]4C[C@@H](O[C@H]5C[C@@H](O)[C@H](O)[C@@H](C)O5)[C@H](O)[C@@H](C)O4)c(C)c(O)c3c(O)c2C(=O)[C@H]1O[C@H]1C[C@@H](O[C@H]2C[C@@H](O[C@H]3C[C@](C)(O)[C@H](O)[C@@H](C)O3)[C@@H](O)[C@@H](C)O2)[C@H](O)[C@@H](C)O1 [PLICAMYCIN]
- concentration at 2 h [1]: < 100 nM
- MTD at 192 h [2]: 0.6 mg/kg
- concentration at 0.5 h [3]: 200 nM
- concentration at 5 min [4]: 2700 nM
